Data taken from patent publication US20200068891A1, “Synergetic Biocidal Compositions Comprising 5-Chlorine-2-Methylisothiazolin-3-One” (priority 2017, published 2020).

Columns and labels:
[1] = test system: Pseudomonas putida (DSM 25068); test: Synergy test: minimum inhibitory concentrations in microtiter plates, Pseudomonas putida in Mueller-Hinton broth; assay type: cell-based; details: 48 hours at 30° C.; for Synergy index Qa/QA + Qb/QB: below 1 = synergism; for Qa (CMIT): concentration of CMIT indicating an end point / Qa (CIT): concentration of CMIT indicating an end point: as sole agent (QA) where Qb is 0
Description: (Pseudomonas) or 25° C. (Yarrowia).
Kull et al., Applied Microbiology, Vol. 9 (1961), p. 538.
QA =concentration of component A as sole biocide
QB =concentration of component B as sole biocide

[2] = test system: Yarrowia lipolytica (DSM 32369); test: Synergy test: minimum inhibitory concentrations in microtiter plates, Yarrowia lipolytica in Sabouraud Maltose broth; details: 48 hours at 25° C.; for Synergy index Qa/QA + Qb/QB: below 1 = synergism; for Qa (CMIT) / Qa (CMIT): concentration of CMIT indicating an end point: as sole agent (QA) where Qb is 0
Description: The test organisms used were the Gram-negative bacterium Pseudomonas putida (DSM 25068) and the yeast fungus Yarrowia lipolytica (DSM 32369). For this, mixtures with different concentrations of the particular active substances were prepared and tested in regard to their effect on Pseudomonas putida and Yarrowia lipolytica. The testing was done in Milller-Hinton broth MHB (in the case of Pseudomonas) or Sabouraud Maltose broth SMB (in the case of Yarrowia) with a cell density of 10^6 germs per ml.
The incubation time of the microtiter plates was 48 hours at 30° C. (Pseudomonas) or 25° C. (Yarrowia). After 48 hours the batches were evaluated for turbidity due to growth and, in addition, the optical density was determined by photometry. In this way, the minimum inhibitory concentrations (MHK) were determined for the two active substances individually and in combination.
The resulting synergism was represented numerically by calculating the synergy index (SI). […] There, the SI is calculated by the following formula: synergy index SI =Qa/QA +Qb/QB
Qa =concentration of component A in the mixture A+B
Qb =concentration of component B in the mixture A+B
If the synergy index has a value over 1, this means that an antagonism is present. If the synergy index takes on the value 1, this means that an addition of the effect of the two biocides/compounds is present. If the synergy index takes on a value below 1, this means that a synergism exists for the two biocides. If the synergy index has a value of more than 1, this means that an antagonism exists.

[3] = in the mixture with CMIT, as sole agent (QB) where Qa is 0

CCCCn1sc2ccccc2c1=O [BBIT, N-butyl-benzisothiazolinone]
Synergy index Qa/QA + Qb/QB ([1]; CMIT and BBIT): 1.00 | Qb (BBIT): concentration of BBIT indicating an end point [1, 3]: 20 ppm | Synergy index Qa/QA + Qb/QB ([2]; CMIT and BBIT): 1.00 | Qb (BBIT): concentration of BBIT indicating an end point [2, 3]: 3.00 ppm

Cn1sc(Cl)cc1=O [CMIT, 5-chloro-2-methylisothiazolin-3-one]
Synergy index Qa/QA + Qb/QB ([1]; CMIT and BAC): 1.00 | Synergy index Qa/QA + Qb/QB ([1]; CMIT and BBIT): 1.00 | Synergy index Qa/QA + Qb/QB ([1]; CMIT and DDAC): 1.00 | Synergy index Qa/QA + Qb/QB ([1]; CMIT and EDDS): 1.00 | Synergy index Qa/QA + Qb/QB ([1]; CMIT and GDA): 1.00 | Synergy index Qa/QA + Qb/QB ([1]; CMIT and HCHO): 1.00 | Synergy index Qa/QA + Qb/QB ([1]; CMIT and HEDP): 1.00 | Synergy index Qa/QA + Qb/QB ([1]; CMIT and IPBC): 1.00 | Synergy index Qa/QA + Qb/QB ([1]; CMIT and OIT): 1.00 | Synergy index Qa/QA + Qb/QB ([1]; CMIT and PASP Na salt): 1.00 | Synergy index Qa/QA + Qb/QB ([1]; CMIT and ethylparaben): 1.00 | Synergy index Qa/QA + Qb/QB ([1]; CMIT and methylparaben): 1.00 | Synergy index Qa/QA + Qb/QB ([1]; CMIT and phenetyl alcohol): 1.00 | Qa (CMIT): concentration of CMIT indicating an end point ([1]; in the mixture with BAC): 2 ppm | Qa (CIT): concentration of CMIT indicating an end point ([1]; in the mixture with BBIT): 2 ppm | Qa (CMIT): concentration of CMIT indicating an end point ([1]; in the mixture with DDAC): 2 ppm | Qa (CMIT): concentration of CMIT indicating an end point ([1]; in the mixture with EDDS): 2 ppm | Qa (CMIT): concentration of CMIT indicating an end point ([1]; in the mixture with GDA): 2 ppm | Qa (CMIT): concentration of CMIT indicating an end point ([1]; in the mixture with HCHO): 2 ppm | Qa (CMIT): concentration of CMIT indicating an end point ([1]; in the mixture with HEDP): 2 ppm | Qa (CIT): concentration of CMIT indicating an end point ([1]; in the mixture with IPBC): 2 ppm | Qa (CIT): concentration of CMIT indicating an end point ([1]; in the mixture with OIT): 2 ppm | Qa (CMIT): concentration of CMIT indicating an end point ([1]; in the mixture with PASP Na salt): 2 ppm | Qa (CMIT): concentration of CMIT indicating an end point ([1]; in the mixture with ethylparaben): 2 ppm | Qa (CMIT): concentration of CMIT indicating an end point ([1]; in the mixture with methylparaben): 2 ppm | Qa (CMIT): concentration of CMIT indicating an end point ([1]; in the mixture with phenetyl alcohol): 2 ppm | Synergy index Qa/QA + Qb/QB ([2]; CMIT and BBIT): 1.00 | Synergy index Qa/QA + Qb/QB ([2]; CMIT and IPBC): 1.00 | Synergy index Qa/QA + Qb/QB ([2]; CMIT and OIT): 1.00 | Synergy index Qa/QA + Qb/QB ([2]; CMIT and dehydracetic acid): 1.00 | Synergy index Qa/QA + Qb/QB ([2]; CMIT and salicylic acid): 1.00 | Synergy index Qa/QA + Qb/QB ([2]; CMIT and sorbic acid): 1.00 | Qa (CMIT) ([2]; in the mixture with BBIT): 2.50 ppm | Qa (CMIT) ([2]; in the mixture with IPBC): 2.50 ppm | Qa (CMIT) ([2]; in the mixture with OIT): 2.50 ppm | Qa (CMIT): concentration of CMIT indicating an end point ([2]; in the mixture with benzoic acid): 2.5 ppm | Qa (CMIT): concentration of CMIT indicating an end point ([2]; in the mixture with dehydracetic acid): 2.5 ppm | Qa (CMIT): concentration of CMIT indicating an end point ([2]; in the mixture with salicylic acid): 2.5 ppm | Qa (CMIT): concentration of CMIT indicating an end point ([2]; in the mixture with sorbic acid): 2.5 ppm

CCCCCCCCCC[N+](C)(C)CCCCCCCCCC.[Cl-] [DDAC, didecyldimethylammonium chloride]
Synergy index Qa/QA + Qb/QB ([1]; CMIT and DDAC): 1.00 | Qb (DDAC): concentration of DDAC indicating an end point [1, 3]: 7.5 ppm

O=CCCCC=O [GDA, glutardialdehyde]
Synergy index Qa/QA + Qb/QB ([1]; CMIT and GDA): 1.00 | Qb (GDA): concentration of GDA indicating an end point [1, 3]: 500 ppm

C=O [HCHO, formaldehyde]
Synergy index Qa/QA + Qb/QB ([1]; CMIT and HCHO): 1.00 | Qb (HCHO): concentration of HCHO indicating an end point [1, 3]: 500 ppm

CC(O)(P(=O)(O)O)P(=O)(O)O [HEDP, (1-hydroxyethylidene)bis-phosphonic acid]
Synergy index Qa/QA + Qb/QB ([1]; CMIT and HEDP): 1.00 | Qb (HEDP): concentration of HEDP indicating an end point [1, 3]: 250 ppm

CCCCNC(=O)OCC#CI [IPBC, 3-iodo-2-propynyl butylcarbamate]
Synergy index Qa/QA + Qb/QB ([1]; CMIT and IPBC): 1.00 | Qb (IPBC): concentration of IPBC indicating an end point [1, 3]: 1000 ppm | Synergy index Qa/QA + Qb/QB ([2]; CMIT and IPBC): 1.00 | Qb (IPBC): concentration of IPBC indicating an end point [2, 3]: 2.50 ppm

CCCCCCCCn1sccc1=O [OIT, octylisothiazolinone]
Synergy index Qa/QA + Qb/QB ([1]; CMIT and OIT): 1.00 | Qb (OIT): concentration of OIT indicating an end point [1, 3]: 300 ppm | Synergy index Qa/QA + Qb/QB ([2]; CMIT and OIT): 1.00 | Qb (OIT): concentration of OIT indicating an end point [2, 3]: 2.00 ppm

O=C(O)c1ccccc1 [benzoic acid]
Qb (benzoic acid): concentration of benzoic acid indicating an end point [2, 3]: 2500 ppm

CC(=O)C1C(=O)C=C(C)OC1=O (centres unmarked) [dehydracetic acid]
Synergy index Qa/QA + Qb/QB ([2]; CMIT and dehydracetic acid): 1.00 | Qb (dehydracetic acid): concentration of dehydracetic acid indicating an end point [2, 3]: 200 ppm

CCOC(=O)c1ccc(O)cc1 [ethylparaben]
Synergy index Qa/QA + Qb/QB ([1]; CMIT and ethylparaben): 1.00 | Qb (ethylparaben): concentration of ethylparaben indicating an end point [1, 3]: 1500 ppm

COC(=O)c1ccc(O)cc1 [methylparaben]
Synergy index Qa/QA + Qb/QB ([1]; CMIT and methylparaben): 1.00 | Qb (methylparaben): concentration of methylparaben indicating an end point [1, 3]: 2000 ppm

OCCc1ccccc1 [phenetyl alcohol]
Synergy index Qa/QA + Qb/QB ([1]; CMIT and phenetyl alcohol): 1.00 | Qb (phenetyl alcohol): concentration of phenetyl alcohol indicating an end point [1, 3]: 3000 ppm

O=C(O)c1ccccc1O [salicylic acid]
Synergy index Qa/QA + Qb/QB ([2]; CMIT and salicylic acid): 1.00 | Qb (salicylic acid): concentration of salicylic acid indicating an end point [2, 3]: 3000 ppm

C/C=C/C=C/C(=O)O [sorbic acid]
Synergy index Qa/QA + Qb/QB ([2]; CMIT and sorbic acid): 1.00 | Qb (sorbic acid): concentration of sorbic acid indicating an end point [2, 3]: 750 ppm

benzalkonium chloride [BAC]
Synergy index Qa/QA + Qb/QB ([1]; CMIT and BAC): 1.00 | Qb (BAC): concentration of BAC indicating an end point [1, 3]: 30 ppm
